Legend:
Assay type in all cases: in vivo
[1] = test system: barnyardgrass (Echinochloa crus-galli); assay: Test B flooded paddy test; details: Flood, 250 g ai/ha; 0 to 100 scale where 0 is no effect and 100 is complete control; 13 to 15 d
In short: (§1)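 Greenhouse paddy pots with 2-leaf stage plants received compound by direct addition to floodwater 3 cm deep, kept at that level. Scored visually at 13–15 d versus controls (0 no effect; 100 complete control).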

rice (Oryra sativa) = assay: Test B flooded paddy test; details: Flood, 250 g ai/ha; 0 to 100 scale where 0 is no effect and 100 is complete control; 13 to 15 d
In short: as §1

[2] = test system: sedge, umbrella (small-flower umbrella sedge, Cyperus difformis); assay: Test B flooded paddy test; details: Flood, 250 g ai/ha; 0 to 100 scale where 0 is no effect and 100 is complete control; 13 to 15 d
In short: as §1

[3] = test system: ducksalad (Heteranthera limosa); assay: Test B flooded paddy test; details: Flood, 250 g ai/ha; 0 to 100 scale where 0 is no effect and 100 is complete control; 13 to 15 d
In short: as §1

[4] = test system: barnyardgrass (Echinochloa crus-galli); assay: Test A preemergence
In short: (§2)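 Seeded soil received test chemicals as a preemergence directed spray, and seedlings at one to two leaves, 2–10 cm tall, received them postemergence, in a non-phytotoxic, surfactant-containing solvent mixture. Pots were held in a greenhouse for approximately 10 d, then rated for injury from 0, no effect, to 100, complete control.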

[5] = test system: ryegrass, Italian (Italian ryegrass, Lolium multiflorum); assay: Test A preemergence
In short: as §2

[6] = test system: giant foxtail (Setaria faberii); assay: Test A preemergence
In short: as §2

Kochia (Kochia scoparia) [7] = assay: Test A preemergence
In short: as §2

[8] = test system: pigweed (Amaranthus retroflexus); assay: Test A preemergence
[9] = test system: ragweed (common ragweed, Ambrosia elatior); assay: Test A preemergence
In short: as §2

[10] = test system: barnyardgrass (Echinochloa crus-galli); assay: Test A postemergence
In short: as §2

[11] = test system: ryegrass, Italian (Italian ryegrass, Lolium multiflorum); assay: Test A postemergence
In short: as §2

[12] = test system: wheat (Triticum aestivum); assay: Test A postemergence
In short: as §2

[13] = test system: giant foxtail (Setaria faberii); assay: Test A postemergence
In short: as §2

[14] = test system: Galium (catchweed bedstraw, Galium aparine); assay: Test A postemergence
In short: as §2

Kochia (Kochia scoparia) [15] = assay: Test A postemergence
In short: as §2

[16] = test system: pigweed (Amaranthus retroflexus); assay: Test A postemergence
In short: as §2

[17] = test system: blackgrass (Alopecurus myosuroides); assay: Test A postemergence
In short: as §2

[18] = test system: ragweed (common ragweed, Ambrosia elatior); assay: Test A postemergence
In short: as §2

corn (Zea mays) = assay: Test A postemergence
In short: as §2

[19] = 125 g ai/ha, Preemergence, visual injury after approximately 10 d, 0 to 100 scale where 0 is no effect and 100 is complete control
[20] = 500 g ai/ha, preemergence, 0 to 100 scale, 0 = no effect, 100 = complete control
[21] = 125 g ai/ha, postemergence, visual rating after approx. 10 d, 0 to 100 scale (0 no effect, 100 complete control)
[22] = 500 g ai/ha, postemergence, visual injury, 0 to 100 scale (0 no effect, 100 complete control), approx. 10 d
[23] = Preemergence, 500 g ai/ha, visual injury approx. 10 d
[24] = Postemergence, 500 g ai/ha, 0 to 100 scale where 0 is no effect and 100 is complete control

Row | SMILES | Plant response rating, Barnyardgrass [1] | Plant response rating, Rice (rice (Oryra sativa)) | Plant response rating, Sedge, Umbrella [2] | Plant response rating, Ducksalad [3] | Plant response rating, Barnyardgrass [4, 19] | Plant response rating, Ryegrass, Italian [5, 19] | Plant response rating, Foxtail, Giant [6, 19] | Plant response rating, Kochia (Kochia (Kochia scoparia) [7]; [19]) | Plant response rating, Pigweed [8, 19] | Plant response rating, Ragweed [9, 19] | Plant response rating, Barnyardgrass [10, 21] | Plant response rating, Ryegrass, Italian [11, 21] | Plant response rating, Wheat [12, 21] | Plant response rating, Foxtail, Giant [13, 21] | Plant response rating, Galium [14, 21] | Plant response rating, Kochia (Kochia (Kochia scoparia) [15]; [21]) | Plant response rating, Pigweed [16, 21] | Plant response rating, Blackgrass [17, 21] | Plant response rating, Ragweed [18, 21] | Plant response rating, Corn (corn (Zea mays); [21]) | other results
1 | CN1CC(c2cc(F)cc(F)c2)C(C(=O)Nc2cccc3c2CCCC3)C1=O (stereo not drawn) [Compound 660] | 45 | 15 | 0 | 60 | 60 | 0 | 80 | 0 | 0 | 0 | 50 | 0 | 0 | 80 | 0 | 0 | 0 | 0 | 0 | 0 | Plant response rating, Barnyardgrass [4, 20]: 90; Plant response rating, Ryegrass, Italian [5, 20]: 20; Plant response rating, Foxtail, Giant [6, 20]: 90; Plant response rating, Kochia (Kochia (Kochia scoparia) [7]; [20]): 0; Plant response rating, Pigweed [8, 20]: 0; Plant response rating, Ragweed [9, 20]: 0; Plant response rating, Barnyardgrass [10, 22]: 80; Plant response rating, Ryegrass, Italian [11, 22]: 0; Plant response rating, Wheat [12, 22]: 0; Plant response rating, Foxtail, Giant [13, 22]: 90; Plant response rating, Galium [14, 22]: 0; Plant response rating, Kochia (Kochia (Kochia scoparia) [15]; [22]): 0; Plant response rating, Pigweed [16, 22]: 0; Plant response rating, Blackgrass [17, 22]: 40; Plant response rating, Ragweed [18, 22]: 0; Plant response rating, Corn (corn (Zea mays); [22]): 0
2 | CCc1cc(C2CNC(=O)C2C(=O)Nc2cccc(F)c2F)cs1 (racemic) [Compound 658] | 50 | 0 | 0 | 100 | 90 | 0 | 90 | 0 | 0 | 50 | 70 | 30 | 0 | 0 | 60 | 0 | 0 | 40 | 0 | 0 | Plant response rating, Barnyardgrass [4, 20]: 90; Plant response rating, Ryegrass, Italian [5, 20]: 70; Plant response rating, Foxtail, Giant [6, 20]: 90; Plant response rating, Kochia (Kochia (Kochia scoparia) [7]; [20]): 30; Plant response rating, Pigweed [8, 20]: 50; Plant response rating, Ragweed [9, 20]: 70; Plant response rating, Barnyardgrass [10, 22]: 90; Plant response rating, Ryegrass, Italian [11, 22]: 60; Plant response rating, Wheat [12, 22]: 30; Plant response rating, Foxtail, Giant [13, 22]: 60; Plant response rating, Galium [14, 22]: 60; Plant response rating, Kochia (Kochia (Kochia scoparia) [15]; [22]): 30; Plant response rating, Pigweed [16, 22]: 0; Plant response rating, Blackgrass [17, 22]: 70; Plant response rating, Ragweed [18, 22]: 40; Plant response rating, Corn (corn (Zea mays); [22]): 30
3 | O=C1NCC(c2cc(F)c(F)cc2F)C1C(=O)Nc1ccccc1F (racemic) [Compound 549] | 25 | 0 | 0 | 90 | 40 | 0 | 90 | 0 | 0 | 0 | 40 | 0 | 0 | 20 | 0 | 0 | 0 | 0 | 0 | 0 | Barnyardgrass plant response rating (0 to 100 scale, 0 is no effect, 100 is complete control) [4, 23]: 80; Ryegrass, Italian plant response rating (0 to 100 scale, 0 is no effect, 100 is complete control) [5, 23]: 0; Foxtail, Giant plant response rating (0 to 100 scale, 0 is no effect, 100 is complete control) [6, 23]: 90; Kochia plant response rating (0 to 100 scale, 0 is no effect, 100 is complete control) (Kochia (Kochia scoparia) [7]; [23]): 0; Pigweed plant response rating (0 to 100 scale, 0 is no effect, 100 is complete control) [8, 23]: 0; Ragweed plant response rating (0 to 100 scale, 0 is no effect, 100 is complete control) [9, 23]: 0; Plant response rating, Barnyardgrass [10, 24]: 90; Plant response rating, Ryegrass, Italian [11, 24]: 0; Plant response rating, Wheat [12, 24]: 20; Plant response rating, Foxtail, Giant [13, 24]: 90; Plant response rating, Galium [14, 24]: 0; Plant response rating, Kochia (Kochia (Kochia scoparia) [15]; [24]): 20; Plant response rating, Pigweed [16, 24]: 0; Plant response rating, Blackgrass [17, 24]: 20; Plant response rating, Ragweed [18, 24]: 0; Plant response rating, Corn (corn (Zea mays); [24]): 0

Reference: patent US12077503B2, “Substituted cyclic amides and their use as herbicides” (FMC CORPORATION, priority 2015, dated 2024)
